System: X. dendrorhous Y-2476
Format: cell-based, Xanthophyllomyces dendrorhous

## CC1=C(C)C(=O)C(C)=C(C)C1=O [duroquinone]
  Reduction of growth: 15-25%

Reference: US20050124032A1 (priority 2002, published 2005)
